Results as given in PMC7265341, “Quantifying CDK inhibitor selectivity in live cells” (Nature Communications, 2020).
Like-named read-outs stand apart in the source and are kept apart here.

Assays:
CDK9/Cyclin K = CDK9/Cyclin K (Homo sapiens, UniProt P50750); assay: NanoBRET live-cell target engagement, NanoLuc-CDK9/Cyclin K in HEK-293; assay type: binding; conditions: CDK9/K; for inhibition at 10 µM: read-out: Inhibition at 10µM (%)
CDK19/Cyclin C = CDK19/Cyclin C (Homo sapiens, UniProt Q9BWU1); assay: NanoBRET live-cell target engagement, NanoLuc-CDK19/Cyclin C in HEK-293; conditions: read-out: Inhibition at 10µM (%), CDK19/C
CDK10/Cyclin L2 = CDK10/Cyclin L2 (Homo sapiens, UniProt Q15131); assay: NanoBRET live-cell target engagement, CDK10-NanoLuc/Cyclin L2 in HEK-293; conditions: for IC50: IC50 (nM), CDK10/L2; for inhibition at 10 µM: read-out: Inhibition at 10µM (%), CDK10/L2
CDK11B/Cyclin L2 = CDK11B/Cyclin L2 (Homo sapiens, UniProt P21127); assay: NanoBRET live-cell target engagement, CDK11B-NanoLuc/Cyclin L2 in HEK-293; assay type: binding; conditions: CDK11b/L2; for IC50: read-out: IC50; for inhibition at 10 µM: read-out: Inhibition at 10µM (%)
CDK11A/Cyclin L2 = biological target: T1, CDK11A/Cyclin L2 (Homo sapiens, UniProt Q9UQ88); assay: NanoBRET live-cell target engagement, CDK11A-NanoLuc/Cyclin L2 in HEK-293; assay type: binding; conditions: CDK11a/L2; for IC50: read-out: IC50; for inhibition at 10 µM: read-out: Inhibition at 10µM (%)
T1 sequence (Q9UQ88 1-783): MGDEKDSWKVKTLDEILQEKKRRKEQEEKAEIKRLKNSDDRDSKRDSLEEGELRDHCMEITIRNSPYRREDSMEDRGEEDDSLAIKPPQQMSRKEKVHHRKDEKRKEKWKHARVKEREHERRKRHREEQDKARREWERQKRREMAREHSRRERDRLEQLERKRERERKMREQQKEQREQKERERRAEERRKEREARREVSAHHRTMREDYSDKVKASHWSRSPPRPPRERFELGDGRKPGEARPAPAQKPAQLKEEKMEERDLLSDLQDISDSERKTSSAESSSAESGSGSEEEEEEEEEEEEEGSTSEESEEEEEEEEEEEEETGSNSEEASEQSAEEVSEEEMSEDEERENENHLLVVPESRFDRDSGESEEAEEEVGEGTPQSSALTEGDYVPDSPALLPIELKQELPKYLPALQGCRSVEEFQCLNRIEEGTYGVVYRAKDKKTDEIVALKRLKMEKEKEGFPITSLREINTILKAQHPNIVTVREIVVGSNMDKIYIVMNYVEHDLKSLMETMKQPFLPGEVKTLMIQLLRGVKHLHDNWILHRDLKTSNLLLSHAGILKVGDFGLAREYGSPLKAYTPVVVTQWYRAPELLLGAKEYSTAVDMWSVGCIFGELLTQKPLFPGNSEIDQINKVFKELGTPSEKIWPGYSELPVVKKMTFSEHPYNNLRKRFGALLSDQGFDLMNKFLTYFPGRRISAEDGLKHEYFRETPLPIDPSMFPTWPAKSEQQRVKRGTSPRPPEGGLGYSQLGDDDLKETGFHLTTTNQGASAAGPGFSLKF

CDK6/Cyclin D1 = CDK6/Cyclin D1 (Homo sapiens, UniProt Q00534); assay: NanoBRET live-cell target engagement, NanoLuc-CDK6/Cyclin D1 in HEK-293; assay type: binding; conditions: CDK6/D1, read-out: Inhibition at 10µM (%)
CDK16/Cyclin Y = CDK16/Cyclin Y (Homo sapiens, UniProt Q00536); assay: NanoBRET live-cell target engagement, CDK16-NanoLuc/Cyclin Y in HEK-293; assay type: binding; conditions: CDK16/Y; for IC50: read-out: IC50; for inhibition at 10 µM: read-out: Inhibition at 10µM (%)
CDK8/Cyclin C = CDK8/Cyclin C (Homo sapiens, UniProt P49336); assay: NanoBRET live-cell target engagement, NanoLuc-CDK8/Cyclin C in HEK-293; assay type: binding; conditions: CDK8/C, read-out: Inhibition at 10µM (%)
CDK20/Cyclin H = CDK20/Cyclin H (Homo sapiens, UniProt Q8IZL9); assay: NanoBRET live-cell target engagement, NanoLuc-CDK20/Cyclin H in HEK-293; assay type: binding; conditions: CDK20/H, read-out: Inhibition at 10µM (%)
CDK18/Cyclin Y = CDK18/Cyclin Y (Homo sapiens, UniProt Q07002); assay: NanoBRET live-cell target engagement, CDK18-NanoLuc/Cyclin Y in HEK-293; assay type: binding; conditions: for IC50: read-out: IC50
CDK12/Cyclin K = CDK12/Cyclin K (Homo sapiens, UniProt Q9NYV4); assay: NanoBRET live-cell target engagement, CDK12-NanoLuc/Cyclin K in HEK-293; assay type: binding; conditions: read-out: Inhibition at 10µM (%), CDK12/K
CDK4/Cyclin D1 = CDK4/Cyclin D1 (Homo sapiens, UniProt P11802); assay: NanoBRET live-cell target engagement, NanoLuc-CDK4/Cyclin D1 in HEK-293; assay type: binding; conditions: CDK4/D1, read-out: Inhibition at 10µM (%)
CDK14/Cyclin Y = CDK14/Cyclin Y (Homo sapiens, UniProt O94921); assay: NanoBRET live-cell target engagement, CDK14-NanoLuc/Cyclin Y in HEK-293; assay type: binding; conditions: CDK14/Y, read-out: Inhibition at 10µM (%)
CDK1/Cyclin E1 = CDK1/Cyclin E1 (Homo sapiens, UniProt P06493); assay: NanoBRET live-cell target engagement, CDK1-NanoLuc/Cyclin E1 in HEK-293; assay type: binding; conditions: CDK1/E1, read-out: Inhibition at 10µM (%)
CDK5/CDK5R1 = CDK5/CDK5R1 (Homo sapiens, UniProt Q00535); assay: NanoBRET live-cell target engagement, CDK5-NanoLuc/CDK5R1 in HEK-293; assay type: binding; conditions: CDK5/CDK5R1, read-out: Inhibition at 10µM (%)
CDK13/Cyclin K = CDK13/Cyclin K (Homo sapiens, UniProt Q14004); assay: NanoBRET live-cell target engagement, CDK13-NanoLuc/Cyclin K in HEK-293; assay type: binding; conditions: CDK13/K, read-out: Inhibition at 10µM (%)
CDK15/Cyclin Y = CDK15/Cyclin Y (Homo sapiens, UniProt Q96Q40); assay: NanoBRET live-cell target engagement, NanoLuc-CDK15/Cyclin Y in HEK-293; assay type: binding; conditions: CDK15/Y; for IC50: read-out: IC50; for inhibition at 10 µM: read-out: Inhibition at 10µM (%)
CDK17/Cyclin Y = CDK17/Cyclin Y (Homo sapiens, UniProt Q00537); assay: NanoBRET live-cell target engagement, CDK17-NanoLuc/Cyclin Y in HEK-293; assay type: binding; conditions: CDK17/Y; for IC50: read-out: IC50; for inhibition at 10 µM: read-out: Inhibition at 10µM (%)
CDK7 = CDK7 (Homo sapiens, UniProt P50613); assay: NanoBRET live-cell target engagement, NanoLuc-CDK7 in HEK-293; assay type: binding; conditions: CDK7; for IC50: read-out: IC50; for inhibition at 10 µM: read-out: Inhibition at 10µM (%)

CDK13/Cyclin K, sequence (O75909 whole entry): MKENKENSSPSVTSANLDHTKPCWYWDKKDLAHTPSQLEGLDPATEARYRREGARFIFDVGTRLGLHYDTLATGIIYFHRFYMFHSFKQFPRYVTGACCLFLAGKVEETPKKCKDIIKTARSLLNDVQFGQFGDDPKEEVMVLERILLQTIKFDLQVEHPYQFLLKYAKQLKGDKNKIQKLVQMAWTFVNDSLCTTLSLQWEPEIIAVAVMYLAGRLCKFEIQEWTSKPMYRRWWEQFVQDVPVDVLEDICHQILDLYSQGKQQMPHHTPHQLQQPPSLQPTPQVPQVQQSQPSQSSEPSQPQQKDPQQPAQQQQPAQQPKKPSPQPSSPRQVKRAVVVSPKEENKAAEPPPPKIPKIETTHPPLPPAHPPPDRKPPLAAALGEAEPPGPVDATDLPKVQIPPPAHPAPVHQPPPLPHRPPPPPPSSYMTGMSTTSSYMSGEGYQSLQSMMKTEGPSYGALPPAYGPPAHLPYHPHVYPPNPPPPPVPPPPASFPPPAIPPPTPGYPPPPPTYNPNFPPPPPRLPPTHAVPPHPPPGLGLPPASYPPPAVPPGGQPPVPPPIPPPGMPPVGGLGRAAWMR
CDK13/Cyclin K, sequence (Q14004 other isoform, or with tags, fused parts or gaps): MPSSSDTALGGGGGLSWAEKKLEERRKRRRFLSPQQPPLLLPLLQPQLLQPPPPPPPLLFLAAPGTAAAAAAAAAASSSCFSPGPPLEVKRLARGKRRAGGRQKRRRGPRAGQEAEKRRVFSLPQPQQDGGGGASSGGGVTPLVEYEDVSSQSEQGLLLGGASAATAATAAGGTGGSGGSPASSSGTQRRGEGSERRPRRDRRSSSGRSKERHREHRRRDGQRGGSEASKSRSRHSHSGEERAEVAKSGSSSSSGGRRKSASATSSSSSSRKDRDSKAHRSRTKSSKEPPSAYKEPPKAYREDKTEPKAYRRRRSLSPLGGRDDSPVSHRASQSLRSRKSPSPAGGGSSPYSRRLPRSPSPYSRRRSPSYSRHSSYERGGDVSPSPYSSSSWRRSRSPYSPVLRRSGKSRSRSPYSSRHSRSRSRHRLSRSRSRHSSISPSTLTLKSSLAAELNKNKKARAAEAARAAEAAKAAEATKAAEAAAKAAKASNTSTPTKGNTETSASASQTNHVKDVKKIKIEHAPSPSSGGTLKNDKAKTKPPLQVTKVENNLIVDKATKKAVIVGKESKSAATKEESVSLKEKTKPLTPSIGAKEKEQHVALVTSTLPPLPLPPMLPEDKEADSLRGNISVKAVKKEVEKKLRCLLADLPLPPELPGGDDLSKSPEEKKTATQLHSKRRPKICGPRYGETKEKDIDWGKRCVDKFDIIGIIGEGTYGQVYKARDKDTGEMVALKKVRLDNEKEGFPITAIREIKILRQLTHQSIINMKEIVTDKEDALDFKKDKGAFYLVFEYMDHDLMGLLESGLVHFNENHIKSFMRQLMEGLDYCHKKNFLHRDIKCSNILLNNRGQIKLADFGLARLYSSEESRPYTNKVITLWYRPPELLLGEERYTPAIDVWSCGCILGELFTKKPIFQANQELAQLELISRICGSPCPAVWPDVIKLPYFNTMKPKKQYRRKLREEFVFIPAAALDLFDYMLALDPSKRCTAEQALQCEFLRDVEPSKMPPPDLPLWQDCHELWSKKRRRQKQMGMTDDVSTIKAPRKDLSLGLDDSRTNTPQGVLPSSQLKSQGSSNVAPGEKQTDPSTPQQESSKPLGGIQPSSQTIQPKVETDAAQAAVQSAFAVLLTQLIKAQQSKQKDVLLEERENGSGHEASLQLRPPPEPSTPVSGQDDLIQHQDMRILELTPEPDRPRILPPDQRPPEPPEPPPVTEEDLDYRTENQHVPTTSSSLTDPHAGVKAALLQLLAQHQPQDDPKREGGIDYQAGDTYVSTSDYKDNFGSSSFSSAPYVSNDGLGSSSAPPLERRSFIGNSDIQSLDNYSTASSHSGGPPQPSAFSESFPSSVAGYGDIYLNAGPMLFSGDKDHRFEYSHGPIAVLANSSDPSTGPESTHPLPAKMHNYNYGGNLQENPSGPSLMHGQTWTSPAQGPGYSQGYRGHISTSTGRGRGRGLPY
CDK19/Cyclin C, sequence (Q9BWU1 whole entry): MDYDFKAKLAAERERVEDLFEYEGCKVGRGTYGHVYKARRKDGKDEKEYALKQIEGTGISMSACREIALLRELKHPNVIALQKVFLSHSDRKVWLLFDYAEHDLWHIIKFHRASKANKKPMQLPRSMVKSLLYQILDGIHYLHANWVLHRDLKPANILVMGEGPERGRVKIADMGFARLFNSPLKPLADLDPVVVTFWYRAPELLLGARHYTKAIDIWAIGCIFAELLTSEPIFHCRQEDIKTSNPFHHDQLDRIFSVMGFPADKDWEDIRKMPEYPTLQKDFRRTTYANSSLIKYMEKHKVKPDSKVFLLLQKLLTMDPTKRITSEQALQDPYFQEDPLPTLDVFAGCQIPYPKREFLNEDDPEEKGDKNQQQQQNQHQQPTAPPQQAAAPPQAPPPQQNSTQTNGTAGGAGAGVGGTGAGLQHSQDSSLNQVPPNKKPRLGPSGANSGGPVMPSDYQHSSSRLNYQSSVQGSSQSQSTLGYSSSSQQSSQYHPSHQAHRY
CDK19/Cyclin C, sequence (P24863 whole entry partner): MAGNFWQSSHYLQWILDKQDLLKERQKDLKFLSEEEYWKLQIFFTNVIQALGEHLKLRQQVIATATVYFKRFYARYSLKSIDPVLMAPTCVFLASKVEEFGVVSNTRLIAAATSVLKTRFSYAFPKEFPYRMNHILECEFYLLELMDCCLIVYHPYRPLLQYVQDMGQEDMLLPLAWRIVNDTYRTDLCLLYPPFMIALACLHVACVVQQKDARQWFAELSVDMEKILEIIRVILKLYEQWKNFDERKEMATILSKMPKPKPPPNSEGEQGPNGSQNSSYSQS
CDK16/Cyclin Y, sequence (Q00536 whole entry): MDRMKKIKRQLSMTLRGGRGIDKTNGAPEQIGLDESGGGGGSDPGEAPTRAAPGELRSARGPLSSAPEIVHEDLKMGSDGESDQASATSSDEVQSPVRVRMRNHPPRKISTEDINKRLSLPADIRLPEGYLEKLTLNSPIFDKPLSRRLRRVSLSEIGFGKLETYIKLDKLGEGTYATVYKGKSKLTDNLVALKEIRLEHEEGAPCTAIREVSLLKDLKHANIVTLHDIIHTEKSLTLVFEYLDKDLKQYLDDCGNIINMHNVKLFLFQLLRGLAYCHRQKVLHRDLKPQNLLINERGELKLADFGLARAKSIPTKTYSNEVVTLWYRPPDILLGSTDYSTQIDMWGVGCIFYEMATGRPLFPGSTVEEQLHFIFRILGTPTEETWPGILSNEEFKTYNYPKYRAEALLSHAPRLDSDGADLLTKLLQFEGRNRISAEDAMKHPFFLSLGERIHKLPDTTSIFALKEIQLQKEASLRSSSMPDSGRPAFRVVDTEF
CDK16/Cyclin Y, sequence (Q8ND76 whole entry partner): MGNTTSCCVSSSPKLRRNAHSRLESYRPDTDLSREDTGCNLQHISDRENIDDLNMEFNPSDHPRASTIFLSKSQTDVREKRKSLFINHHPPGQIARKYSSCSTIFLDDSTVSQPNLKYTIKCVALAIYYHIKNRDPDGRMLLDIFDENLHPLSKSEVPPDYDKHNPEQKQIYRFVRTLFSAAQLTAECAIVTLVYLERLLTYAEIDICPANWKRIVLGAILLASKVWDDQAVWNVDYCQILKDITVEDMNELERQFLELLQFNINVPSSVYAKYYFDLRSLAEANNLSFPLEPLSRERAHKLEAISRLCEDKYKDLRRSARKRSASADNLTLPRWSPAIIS
CDK1/Cyclin E1, sequence (P06493 whole entry): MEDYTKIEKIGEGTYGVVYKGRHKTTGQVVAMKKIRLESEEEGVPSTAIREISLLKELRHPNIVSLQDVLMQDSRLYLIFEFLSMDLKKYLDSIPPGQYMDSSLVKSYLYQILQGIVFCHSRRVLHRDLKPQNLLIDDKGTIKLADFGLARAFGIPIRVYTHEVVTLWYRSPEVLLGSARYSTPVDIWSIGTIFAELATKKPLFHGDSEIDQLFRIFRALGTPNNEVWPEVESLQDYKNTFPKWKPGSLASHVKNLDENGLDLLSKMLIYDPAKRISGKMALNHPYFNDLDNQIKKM
CDK1/Cyclin E1, sequence (P24864 whole entry partner): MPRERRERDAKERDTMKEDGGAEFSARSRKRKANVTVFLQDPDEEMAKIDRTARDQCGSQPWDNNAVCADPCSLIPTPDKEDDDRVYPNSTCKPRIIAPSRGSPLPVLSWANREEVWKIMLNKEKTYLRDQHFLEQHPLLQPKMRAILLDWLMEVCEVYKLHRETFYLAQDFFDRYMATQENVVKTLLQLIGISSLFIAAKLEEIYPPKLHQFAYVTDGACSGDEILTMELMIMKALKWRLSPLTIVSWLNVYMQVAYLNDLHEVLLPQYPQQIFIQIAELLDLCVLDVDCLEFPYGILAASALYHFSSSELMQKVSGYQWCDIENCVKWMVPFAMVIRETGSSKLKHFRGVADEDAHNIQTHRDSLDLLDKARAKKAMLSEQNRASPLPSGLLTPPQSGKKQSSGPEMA
CDK15/Cyclin Y, sequence (Q96Q40 whole entry): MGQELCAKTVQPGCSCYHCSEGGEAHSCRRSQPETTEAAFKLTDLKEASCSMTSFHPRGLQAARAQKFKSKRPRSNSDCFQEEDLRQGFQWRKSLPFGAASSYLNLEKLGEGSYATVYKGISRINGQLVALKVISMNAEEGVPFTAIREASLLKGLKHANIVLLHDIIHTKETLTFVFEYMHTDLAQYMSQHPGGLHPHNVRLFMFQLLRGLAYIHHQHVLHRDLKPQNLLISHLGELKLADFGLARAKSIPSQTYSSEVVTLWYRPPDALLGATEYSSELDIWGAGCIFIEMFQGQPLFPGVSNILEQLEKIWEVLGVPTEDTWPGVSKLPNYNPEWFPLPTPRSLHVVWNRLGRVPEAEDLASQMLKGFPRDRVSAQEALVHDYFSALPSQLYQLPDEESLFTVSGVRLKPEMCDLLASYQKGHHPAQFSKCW
CDK15/Cyclin Y, sequence (Q8ND76 whole entry partner): as the sequence (Q8ND76 whole entry partner) above

COc1ccc(F)cc1-c1cc(NC(=O)C2CCCNC2)ncc1Cl (stereo not shown) [CDK inhibitor 2]
IC50 (CDK9/Cyclin K; average (± SEM where n=3)): 3.5 ± 0.8 nM | inhibition at 10 µM (CDK9/Cyclin K; average): 98.4% | IC50 (CDK9/Cyclin K; experiment 1): 5 nM | inhibition at 10 µM (CDK9/Cyclin K; experiment 1): 99.1% | IC50 (CDK9/Cyclin K; experiment 2): 2.3 nM | inhibition at 10 µM (CDK9/Cyclin K; experiment 2): 97.8% | IC50 (CDK9/Cyclin K; experiment 3): 3 nM | inhibition at 10 µM (CDK19/Cyclin C; average): 72.6% | inhibition at 10 µM (CDK19/Cyclin C; experiment 1): 75.1% | inhibition at 10 µM (CDK19/Cyclin C; experiment 2): 70.1% | IC50 (CDK10/Cyclin L2; average (± SEM where n=3)): 500 ± 200 nM | IC50 (CDK10/Cyclin L2; experiment 1): 340 nM | IC50 (CDK10/Cyclin L2; experiment 2): 230 nM | IC50 (CDK10/Cyclin L2; experiment 3): 972 nM | inhibition at 10 µM (CDK10/Cyclin L2; average): 83.1% | inhibition at 10 µM (CDK10/Cyclin L2; experiment 1): 83.7% | inhibition at 10 µM (CDK10/Cyclin L2; experiment 2): 82.5% | IC50 (CDK11B/Cyclin L2; average (± SEM where n=3)): 17 ± 5 nM | inhibition at 10 µM (CDK11B/Cyclin L2; average): 95.6% | IC50 (CDK11B/Cyclin L2; experiment 1): 9 nM | inhibition at 10 µM (CDK11B/Cyclin L2; experiment 1): 96.5% | IC50 (CDK11B/Cyclin L2; experiment 2): 18 nM | inhibition at 10 µM (CDK11B/Cyclin L2; experiment 2): 94.6% | IC50 (CDK11B/Cyclin L2; experiment 3): 25 nM | IC50 (CDK11A/Cyclin L2; average (± SEM where n=3)): 20 ± 10 nM | inhibition at 10 µM (CDK11A/Cyclin L2; average): 95.4% | IC50 (CDK11A/Cyclin L2; experiment 1): 8.3 nM | inhibition at 10 µM (CDK11A/Cyclin L2; experiment 1): 94.8% | IC50 (CDK11A/Cyclin L2; experiment 2): 17 nM | inhibition at 10 µM (CDK11A/Cyclin L2; experiment 2): 95.9% | IC50 (CDK11A/Cyclin L2; experiment 3): 47 nM | inhibition at 10 µM (CDK6/Cyclin D1; average): 77.1% | inhibition at 10 µM (CDK6/Cyclin D1; experiment 1): 76.2% | inhibition at 10 µM (CDK6/Cyclin D1; experiment 2): 78% | IC50 (CDK16/Cyclin Y; average (± SEM where n=3)): 100 ± 30 nM | IC50 (CDK16/Cyclin Y; experiment 1): 51 nM | inhibition at 10 µM (CDK16/Cyclin Y; experiment 1): 89.7% | IC50 (CDK16/Cyclin Y; experiment 2): 140 nM | inhibition at 10 µM (CDK16/Cyclin Y; experiment 2): 90.1% | IC50 (CDK16/Cyclin Y; experiment 3): 117 nM | inhibition at 10 µM (CDK8/Cyclin C; average): 58% | inhibition at 10 µM (CDK8/Cyclin C; experiment 1): 65.9% | inhibition at 10 µM (CDK8/Cyclin C; experiment 2): 50% | inhibition at 10 µM (CDK20/Cyclin H; experiment 1): 18.7% | inhibition at 10 µM (CDK20/Cyclin H; experiment 2): 27.3% | IC50 (CDK18/Cyclin Y; CDK18/Y, average (± SEM where n=3)): 140 ± 30 nM | IC50 (CDK18/Cyclin Y; CDK18/Y, experiment 1): 104 nM | inhibition at 10 µM (CDK18/Cyclin Y; CDK18/Y, experiment 1, read-out: Inhibition at 10µM (%)): 93.5% | IC50 (CDK18/Cyclin Y; CDK18/Y, experiment 2): 210 nM | inhibition at 10 µM (CDK18/Cyclin Y; CDK18/Y, experiment 2, read-out: Inhibition at 10µM (%)): 102% | IC50 (CDK18/Cyclin Y; CDK18/Y, experiment 3): 112 nM | inhibition at 10 µM (CDK18/Cyclin Y; read-out: Inhibition at 10µM (%), CDK18/Y, average): 97.8% | inhibition at 10 µM (CDK12/Cyclin K; average): 49.3% | inhibition at 10 µM (CDK12/Cyclin K; experiment 1): 41% | inhibition at 10 µM (CDK12/Cyclin K; experiment 2): 57.6% | inhibition at 10 µM (CDK4/Cyclin D1; average): 83.4% | inhibition at 10 µM (CDK4/Cyclin D1; experiment 1): 81.2% | inhibition at 10 µM (CDK4/Cyclin D1; experiment 2): 85.7% | inhibition at 10 µM (CDK14/Cyclin Y; average): 86.5% | inhibition at 10 µM (CDK14/Cyclin Y; experiment 1): 89.6% | inhibition at 10 µM (CDK14/Cyclin Y; experiment 2): 83.5% | inhibition at 10 µM (CDK1/Cyclin E1; average): 79.7% | inhibition at 10 µM (CDK1/Cyclin E1; experiment 1): 76.7% | inhibition at 10 µM (CDK1/Cyclin E1; experiment 2): 82.8% | inhibition at 10 µM (CDK5/CDK5R1; average): 40% | inhibition at 10 µM (CDK5/CDK5R1; experiment 1): 37.7% | inhibition at 10 µM (CDK5/CDK5R1; experiment 2): 42.4% | inhibition at 10 µM (CDK13/Cyclin K; average): 41.2% | inhibition at 10 µM (CDK13/Cyclin K; experiment 1): 31.4% | inhibition at 10 µM (CDK13/Cyclin K; experiment 2): 51.1% | IC50 (CDK15/Cyclin Y; average (± SEM where n=3)): 540 ± 70 nM | inhibition at 10 µM (CDK15/Cyclin Y; average): 92.4% | IC50 (CDK15/Cyclin Y; experiment 1): 407 nM | inhibition at 10 µM (CDK15/Cyclin Y; experiment 1): 93.4% | IC50 (CDK15/Cyclin Y; experiment 2): 570 nM | inhibition at 10 µM (CDK15/Cyclin Y; experiment 2): 91.4% | IC50 (CDK15/Cyclin Y; experiment 3): 648 nM | IC50 (CDK17/Cyclin Y; average (± SEM where n=3)): 90 ± 20 nM | inhibition at 10 µM (CDK17/Cyclin Y; average): 91.6% | IC50 (CDK17/Cyclin Y; experiment 1): 57 nM | inhibition at 10 µM (CDK17/Cyclin Y; experiment 1): 90.5% | IC50 (CDK17/Cyclin Y; experiment 2): 110 nM | inhibition at 10 µM (CDK17/Cyclin Y; experiment 2): 92.6% | IC50 (CDK17/Cyclin Y; experiment 3): 99 nM | IC50 (CDK7; average (± SEM where n=3)): 120 ± 50 nM | inhibition at 10 µM (CDK7; average): 82.8% | IC50 (CDK7; experiment 1): 83 nM | inhibition at 10 µM (CDK7; experiment 1): 83.3% | IC50 (CDK7; experiment 2): 58 nM | inhibition at 10 µM (CDK7; experiment 2): 82.3% | IC50 (CDK7; experiment 3): 215 nM
